From patent US5242943A, “3-aminopropoxyphenyl derivatives, their preparation and pharmaceutical compositions containing them” (Louis; William J., priority 1984, dated 1993) come the findings set out here.

Test [1] addresses T1, beta adrenoceptor (Cavia porcellus, UniProt H0W3H1).
T1 construct: in the spontaneously beating guinea pig atrium; from tissue; host or cells: guinea pig atrium
As to the kind of experiment: Inhibition of the positive chronotropic isoproterenol effect in spontaneously beating guinea pig atrium. It is filed as cell-based.

The test system of test [2] is tracheal muscle. As to the kind of experiment: Tracheal preparations of the guinea pig, blockade of isoproterenol relaxation. It is filed as cell-based. Particulars: for blocking effect of the responses to isoproterenol in the trachea: at concentrations as high as 3×10^-5 mol/l; for selectivity for the cardiac beta 1 adrenoceptor: atria vs trachea, in words.
For test [3], the target named is T2, beta-1 adrenoceptor (Rattus norvegicus, UniProt P18090).
T2 construct: from tissue; host or cells: heart of the pithed rat, in vivo
T2 sequence (P18090 whole entry): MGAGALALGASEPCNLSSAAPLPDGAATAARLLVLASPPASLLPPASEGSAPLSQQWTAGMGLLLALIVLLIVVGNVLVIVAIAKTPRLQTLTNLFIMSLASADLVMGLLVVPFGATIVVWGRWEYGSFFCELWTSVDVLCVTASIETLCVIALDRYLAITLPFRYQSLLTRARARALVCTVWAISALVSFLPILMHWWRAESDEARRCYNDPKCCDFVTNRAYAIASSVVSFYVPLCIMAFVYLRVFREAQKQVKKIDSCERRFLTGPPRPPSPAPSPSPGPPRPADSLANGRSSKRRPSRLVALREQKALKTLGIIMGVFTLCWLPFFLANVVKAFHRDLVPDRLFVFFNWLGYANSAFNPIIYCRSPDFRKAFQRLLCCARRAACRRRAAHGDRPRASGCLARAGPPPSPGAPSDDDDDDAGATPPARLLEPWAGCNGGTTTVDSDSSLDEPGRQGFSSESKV
In words: Inhibition of isoproterenol induced tachycardia in the pithed rat. It is filed as in vivo. As to conditions: read-out: Effective Dose (ID50).

Test [4] concerns cardiac contractile force. As to the kind of experiment: Cardiac contractile force in anaesthetised, vagotomized, spinalised cat. Particulars: in words. It is filed as in vivo. The method, then: In the anaesthetised, vagotomized cat spinalised at the level of second cervical vertebrae the compounds exert an increase in cardiac contractile force at a dose of from about 20 to about 2,500 ug/kg i.v. as measured with a strain gauge arch sewn into the left ventricle. The effect may also be measured as a concentration dependent stimulation of the isolated spontaneously beating guinea pig atrium.

T1 sequence (H0W3H1 1-470): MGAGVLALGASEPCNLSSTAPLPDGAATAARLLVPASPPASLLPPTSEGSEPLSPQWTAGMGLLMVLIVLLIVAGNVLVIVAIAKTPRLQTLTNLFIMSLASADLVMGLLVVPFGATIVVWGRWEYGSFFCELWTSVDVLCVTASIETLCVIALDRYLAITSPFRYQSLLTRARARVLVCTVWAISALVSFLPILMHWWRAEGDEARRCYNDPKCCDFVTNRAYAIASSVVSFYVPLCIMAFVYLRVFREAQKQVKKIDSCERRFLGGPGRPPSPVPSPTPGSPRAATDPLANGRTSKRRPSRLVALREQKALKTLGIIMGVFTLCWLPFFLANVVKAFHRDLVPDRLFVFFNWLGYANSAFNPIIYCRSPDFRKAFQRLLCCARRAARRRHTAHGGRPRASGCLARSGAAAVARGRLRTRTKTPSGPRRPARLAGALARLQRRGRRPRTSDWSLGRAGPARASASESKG

Take `CCCOCCOc1ccc(OCC(O)CNCCNC(=O)C2CCOCC2)cc1` (centres unmarked) [Example 3]: the Kb in test [1] is 80 nM. For the same molecule, in test [2], the “blocking effect of the responses to isoproterenol in the trachea” value (from here on “blocking effect of the responses”) was “no blocking effect” and the “selectivity for the cardiac beta 1 adrenoceptor” value is reported as “virtually absolute selectivity”. Besides, the ED50 in test [3] was 0.015 mg/kg.

Molecule `O=C(NCCNCC(O)COc1ccc(OCCOCc2ccc(F)cc2)cc1)C1CCOCC1` (centres unmarked) [Example 7] yielded a Kb in test [1] of 200 nM. For the same molecule, the ED50 in test [3] came to 0.02 mg/kg.

`C[C@H](CNC(=O)C1CCOCC1)NCC(O)COc1ccc(OCCOCC2CCCC2)cc1` (some centres unmarked) [Example 15] returned a Kb in test [1] of 30 nM. Besides, in test [2], the “blocking effect of the responses” value was “no blocking effect” and the “selectivity for the cardiac beta 1 adrenoceptor” value is given as “virtually absolute selectivity”. Besides, in test [3], the ED50 is 0.01 mg/kg.

For the molecule `CCCOCCOc1ccc(OC[C@@H](O)CNC(C)CNC(=O)C2CCOCC2)cc1` (stereo partly drawn) [Example 9, (S)-1-(4-(2-propoxyethoxy)phenoxy)-3((R,S)-2-(tetrahydropyran-4-ylcarbonylamino)-1-methylethylamino)-2-propanol], the Kb in test [1] worked out at 40 nM. Further, the “balance between the agonistic and antagonistic activities” value in test [4] is given as “particularly favourable”. In test [3], the ED50 turned out to be 0.003 mg/kg.

In test [1], `CCCOCCOc1ccc(OCC(O)CNCCNC(=O)C2CCOCC2)c(F)c1` (centres unmarked) [Example 2, 1-(2-fluoro-4-(2-propoxy-ethoxy)phenoxy)-3-(2-(tetrahydropyran-4-yl-carbonylamino)ethylamino)-2-propanol] came in with a Kb of 50 nM. Besides, in test [2], the “blocking effect of the responses” value is given as “no blocking effect” and the “selectivity for the cardiac beta 1 adrenoceptor” value is “virtually absolute selectivity”. Moreover, the ED50 in test [3] turned out to be 0.02 mg/kg.

As to `CC(C)COCCOc1ccc(OCC(O)CN[C@H](C)CNC(=O)C2CCOCC2)cc1` (some centres unmarked) [Example 21], in test [1], the Kb came to 70 nM. The ED50 in test [3] turned out to be 0.005 mg/kg.

The molecule `CCCOCCOc1ccc(OCC(O)CNCCNC(=O)C2CCOCC2)c(C#N)c1` (centres unmarked) [Example 8] came in with a Kb in test [1] of 70 nM. In addition, the ED50 in test [3] was 0.02 mg/kg.

As for `O=C(NCCNCC(O)COc1ccc(OCCOCCc2ccc(F)cc2)cc1)C1CCOCC1` (centres unmarked) [Example 6], the Kb in test [1] stood at 20 nM. For the same molecule, in test [2], the “blocking effect of the responses” value was “no blocking effect” and the “selectivity for the cardiac beta 1 adrenoceptor” value was “virtually absolute selectivity”. In addition, the ED50 in test [3] came out at 0.03 mg/kg.

On to `O=C(NCCNCC(O)COc1ccc(O)cc1F)C1CCOCC1` (centres unmarked) [Example 33, 1-(2-fluoro-4-hydroxyphenoxy)-3-[2-(tetrahydropyran-4-ylcarbonylamino)ethylamino]-2-propanol], for which the “balance between the agonistic and antagonistic activities” value in test [4] was “particularly favourable”.

Molecule `CCCOCCOc1ccc(OC[C@@H](O)CN[C@H](C)CNC(=O)C2CCOCC2)cc1` [Example 10, (S)-1-(4-(2-propoxyethoxy)phenoxy)-((R)-2-(tetrahydropyran-4-ylcarbonylamino)-1-methylethylamino)-2-propanol] registered a Kb in test [1] of 30 nM. The ED50 in test [3] worked out at 0.0006 mg/kg.

Regarding `CCCOCCOc1ccc(OC[C@@H](O)CN[C@@H](C)CNC(=O)C2CCOCC2)cc1` [Example 11, (S)-1-(4-(2-propoxyethoxy)phenoxy)-3-((S)-2-(tetrahydropyran-4-yl-carbonylamino)-1-methylethylamino)-2-propanol], the Kb in test [1] came out at 160 nM. Also, in test [3], the ED50 is 0.02 mg/kg.

As for `Cc1cc(OCCOCC2CC2)ccc1OCC(O)CNCCNC(=O)C1CCOCC1` (centres unmarked) [Example 1, 1-(2-Methyl-4-(2-cyclopropylmethoxyethoxy)-phenoxy)-3-(2-(tetrahydropyran-4-yl-carbonylamino)ethylamino)-2-propanol], in test [1], the Kb amounted to 120 nM. Further, the ED50 in test [3] was 0.1 mg/kg.

`CC(C)COCCOc1ccc(OCC(O)CNCCNC(=O)C2CCOCC2)cc1` (centres unmarked) [Example 4] yielded a Kb in test [1] of 50 nM. For the same molecule, in test [2], the “blocking effect of the responses” value was “no blocking effect” and the “selectivity for the cardiac beta 1 adrenoceptor” value is reported as “virtually absolute selectivity”. The ED50 in test [3] was found to be 0.02 mg/kg.

The molecule `CC(C)NCC(O)COc1ccc(CC(N)=O)cc1` (centres unmarked) [Atenolol, reference compound] registered a selectivity in test [2] (guinea pig atria vs trachea, known selective beta adrenoceptor blockers) of 20.

In turn, `O=C(NCCNCC(O)COc1ccc(OCCOCC2CCCC2)cc1)C1CCOCC1` (centres unmarked) [Example 5] showed a Kb in test [1] of 30 nM. Further, in test [2], the “blocking effect of the responses” value is recorded as “no blocking effect” and the “selectivity for the cardiac beta 1 adrenoceptor” value is on record as “virtually absolute selectivity”. Further, in test [3], the ED50 worked out at 0.03 mg/kg.
